This passage reports IC50 results from patent US20210189342A1, “COMPOSITIONS AND METHODS FOR MODULATING MONOCYTE AND MACROPHAGE INFLAMMATORY PHENOTYPES AND IMMUNOTHERAPY USES THEREOF” (Verseau Therapeutics, Inc., priority 2018, published 2021).

pIC50: −log10 of the molar value.

One series concerns TBXAS1. Description: siRNA dose response, TBXAS1 mRNA knockdown, bDNA Assay. It counts as cell-based, human. The conditions noted are these: A549, 24 hr. Here is the method:
(§1) Dose response curves for siRNAs were generated in vitro using a variety of cell lines according to Table 4.
(§2) Briefly, cells were seeded in 96-well plates and reverse transfected with siRNA, Lipofectamine® 2000 (0.5 uL/well; ThermoFisher), and, in some cases, a reporter plasmid (50 ng/well). The reporter plasmid (psiCHECK™-2, Promega) encoded both firefly luciferase and the gene of interest fused to renilla luciferase; silencing of the gene of interest results in proportional silencing of renilla luciferase but leaves firefly luciferase unaffected as an internal control.
(§3) After 24 hr incubation at 37° C., mRNA knockdown was measured using an endpoint assay. For targets without a reporter plasmid, a branched DNA (bDNA) assay was performed according to the manufacturer's instructions (QuantiGene® Singleplex Gene Expression Assay, ThermoFisher) to measure both the target gene and GAPDH (housekeeping gene) mRNA. Data are plotted as siRNA concentration (nM) vs. remaining mRNA (ratio of target gene to GAPDH, normalized to mock siRNA-transfected cells). For targets with a reporter plasmid, a Dual-Glo® Luciferase Assay was performed according to the manufacturer's instructions (Promega) to measure firefly and renilla luciferase expression. Data are plotted as siRNA concentration (nM) vs. remaining mRNA (ratio of renilla to firefly luminescence, normalized to mock siRNA-transfected cells).
(§4) For all dose response curves, a 4-parameter logistic model was applied to determine the IC50 of each siRNA sequence (Table 5 and FIG. 2). Data shown in Table 5 and FIG. 2 represent the mean of quadruplicates, +/−standard deviation.
Regarding “XD-10490: siRNA targeting TBXAS1 (sense 5'-gccGAcAGcGuucuGuuuudTsdT-3'; antisense 5'-AAAAcAGAACGCUGUCGGCdTsdT-3'; RNA with 2'-O-methyl and phosphorothioate modifications, case key not given here, as printed in the source, key not given here)”, the pIC50 (in general, −log10 of the IC50, conventionally taken in molar units) is 9.24. On the same count and under the same terms, under “XD-10491: siRNA targeting TBXAS1 (sense 5'-cuGcAAGcGuuucuucGAAdTsdT-3'; antisense 5'-UUCGAAGAAACGCUUGcAGdTsdT-3'; RNA with 2'-O-methyl and phosphorothioate modifications, case key not given here, as printed in the source, key not given here)” stands 10.32.

“XD-10492: siRNA targeting TBXAS1 (sense 5'-gcccGGAuuuuGcccAAuAdTsdT-3'; antisense 5'-uAUUGGGcAAAAUCCGGGCdTsdT-3'; RNA with 2'-O-methyl and phosphorothioate modifications, case key not given here, as printed in the source, key not given here)” had a pIC50 of 8.84. Against the preceding substance, the pIC50 is 1.48 log units lower. Still for that read-out and setting: with “XD-10493: siRNA targeting TBXAS1 (sense 5'-ggAuuuuGcccAAuAAGAAdTsdT-3'; antisense 5'-UUCUuAUUGGGcAAAAUCCdTsdT-3'; RNA with 2'-O-methyl and phosphorothioate modifications, case key not given here, as printed in the source, key not given here)” the figure was 9.62.

Take “XD-10494: siRNA targeting TBXAS1 (sense 5'-caAuAAGAAccGAgAcGAAdTsdT-3'; antisense 5'-UUCGUCUCGGUUCUuAUUGdTsdT-3'; RNA with 2'-O-methyl and phosphorothioate modifications, case key not given here, as printed in the source, key not given here)”: the pIC50 was 10.31. Against the preceding substance, the pIC50 is 0.69 log units higher. Still for that read-out and setting: under “XD-10495: siRNA targeting TBXAS1 (sense 5'-gaAccGAGAcGAAcuGAAudTsdT-3'; antisense 5'-AUUcAGUUCGUCUCGGUUCdTsdT-3'; RNA with 2'-O-methyl and phosphorothioate modifications, case key not given here, as printed in the source, key not given here)” stands 9.90; under “XD-10496: siRNA targeting TBXAS1 (sense 5'-agAcGAAcuGAAugGcuuudTsdT-3'; antisense 5'-AAAGCcAUUcAGUUCGUCUdTsdT-3'; as printed in the source, key not given here)”, 10.21. The same measure, in the same setting: under “XD-10497: siRNA targeting TBXAS1 (sense 5'-ccAuGGGcGuGcAaGAcuudTsdT-3'; antisense 5'-AAGUCUUGcACGCCcAUGGdTsdT-3'; RNA with 2'-O-methyl and phosphorothioate modifications, case key not given here, as printed in the source, key not given here)” stands 9.86; under “XD-10498: siRNA targeting TBXAS1 (sense 5'-gcGuGcAAGAcuuuGAcAudTsdT-3'; antisense 5'-AUGUcAAAGUCUUGcACGCdTsdT-3'; RNA with 2'-O-methyl and phosphorothioate modifications, case key not given here, as printed in the source, key not given here)”, 9.56.

In the next series the test system is EVI2B. Kind of series: siRNA dose response, EVI2B mRNA knockdown, bDNA Assay. The conditions noted are these: A172, 24 hr. It counts as cell-based, human. The procedure: as §1, §2, §3, §4
For the substance “XD-10482: siRNA targeting EVI2B (sense 5'-caAccAAcAccAAuAGccAdTsdT-3'; antisense 5'-UGGCuAUUGGUGUUGGUUGdTsdT-3'; RNA with 2'-O-methyl and phosphorothioate modifications, case key not given here, as printed in the source, key not given here)”, the negative-log IC50 (pIC50) is 10.77. The same measure, in the same setting: with “XD-10483: siRNA targeting EVI2B (sense 5'-ccAucuGcccGuAcuucuAdTsdT-3'; antisense 5'-uAGAAGuACGGGcAGAUGGdTsdT-3'; RNA with 2'-O-methyl and phosphorothioate modifications, case key not given here, as printed in the source, key not given here)” the figure was 8.49; with “XD-10484: siRNA targeting EVI2B (sense 5'-ccAccAAAGucAuuuGucudTsdT-3'; antisense 5'-AGAcAAAUGACUUUGGUGGdTsdT-3'; RNA with 2'-O-methyl and phosphorothioate modifications, case key not given here, as printed in the source, key not given here)”, 10.85. The same measure, in the same setting: under “XD-10485: siRNA targeting EVI2B (sense 5'-gucAAAAAuucAccuAGGAdTsdT-3'; antisense 5'-UCCuAGGUGAAUUUUUGACdTsdT-3'; RNA with 2'-O-methyl and phosphorothioate modifications, case key not given here, as printed in the source, key not given here)” stands 8.86; under “XD-10486: siRNA targeting EVI2B (sense 5'-ggAuuuAucuuAGauAcuAdTsdT-3'; antisense 5'-uAGuAUCuAAGAuAAAUCCdTsdT-3'; RNA with 2'-O-methyl and phosphorothioate modifications, case key not given here, as printed in the source, key not given here)”, 9.65. In turn, “XD-10487: siRNA targeting EVI2B (sense 5'-cauAcuAAuuGGuguAcuudTsdT-3'; antisense 5'-AAGuAcACcAAUuAGuAUGdTsdT-3'; RNA with 2'-O-methyl and phosphorothioate modifications, case key not given here, as printed in the source, key not given here)” showed a pIC50 of 9.81. This pIC50 and that of the substance before are within 0.2 log units of each other. On the same count and under the same terms, with “XD-10488: siRNA targeting EVI2B (sense 5'-agcuAuAAucAucauuGuAdTsdT-3'; antisense 5'-uAcAAUGAUGAUuAuAGCUdTsdT-3'; RNA with 2'-O-methyl and phosphorothioate modifications, case key not given here, as printed in the source, key not given here)” the figure was 8.59; with “XD-10489: siRNA targeting EVI2B (sense 5'-cucccAAcucuGAucAAGAdTsdT-3'; antisense 5'-UCUUGAUcAGAGUUGGGAGdTsdT-3'; RNA with 2'-O-methyl and phosphorothioate modifications, case key not given here, as printed in the source, key not given here)”, 10.89.

A further series has as its system SELPLG. Description: siRNA dose response, SELPLG mRNA knockdown, bDNA Assay. In kind it is cell-based, human. The conditions noted are these: THP-1, 24 hr. Here is the method:
as §1, §2, §3, §4
As for “XD-09261: siRNA targeting SELPLG (sense 5'-ccAccGAAuAUGAguAccudTsdT-3'; antisense 5'-AGGuACUcAuAUUCGGUGGdTsdT-3'; as printed in the source, key not given here)”, the negative-log IC50 (pIC50) was 9.41.

In turn, “XD-09262: siRNA targeting SELPLG (sense 5'-ccGAAuAuGAGuAccuAGAdTsdT-3'; antisense 5'-UCuAGGuACUcAuAUUCGGdTsdT-3'; as printed in the source, key not given here)” showed a pIC50 of 8.87. “XD-09263: siRNA targeting SELPLG (sense 5'-gcAcAGAccAcucaAcccAdTsdT-3'; antisense 5'-UGGGUUGAGUGGUCUGUGCdTsdT-3'; as printed in the source, key not given here)” had a pIC50 of 8.53. For the substance “XD-09264: siRNA targeting SELPLG (sense 5'-accAAAAGAGGucuGuucAdTsdT-3'; antisense 5'-UGAAcAGACCUCUUUUGGUdTsdT-3'; as printed in the source, key not given here)”, the pIC50 is 8.71.

With “XD-09265: siRNA targeting SELPLG (sense 5'-aaGcAGAcGGGcAaGuGGAdTsdT-3'; antisense 5'-UCcACUUGCCCGUCUGCUUdTsdT-3'; RNA with 2'-O-methyl and phosphorothioate modifications, case key not given here, as printed in the source, key not given here)”, the negative logarithm of the IC50 (pIC50) is 9.31. On the same count and under the same terms, under “XD-09266: siRNA targeting SELPLG (sense 5'-aguAcuGAAGAGugAcGGAdTsdT-3'; antisense 5'-UCCGUcACUCUUcAGuACUdTsdT-3'; RNA with 2'-O-methyl and phosphorothioate modifications, case key not given here, as printed in the source, key not given here)” stands 9.68. Still for that read-out and setting: under “XD-09267: siRNA targeting SELPLG (sense 5'-acuGAAGAGuGAcgGAcuudTsdT-3'; antisense 5'-AAGUCCGUcACUCUUcAGUdTsdT-3'; RNA with 2'-O-methyl and phosphorothioate modifications, case key not given here, as printed in the source, key not given here)” stands 8.97.
